Data set [1] can be described thus: Single dose PK study in male CD-1 mice. It is filed as in vivo, mouse. The text has this: In order to undertake a preliminary assessment of the pharmacokinetic (PK) profile of this compound class, three compounds were deemed to have sufficient intrinsic potency, solubility and in vitro metabolic stability properties to progress into a single dose in vivo PK study. […] […] […] Nonetheless, the clearance of the three compounds was high to moderate, and at this dose the in vitro EC50 was not reached.
Male CD-1 mice were used for the PK studies, with three for each treatment. […] Blood concentration was measured by LC-MS/MS over 24 h.

Data set [2] in a line: Plasma protein binding. It is filed as in vitro ADME. The note with it: % unbound, read-out: PPB, unbound. The protocol:
(§1) Determination of semi-thermodynamic solubility, metabolic stability in S9 fraction, Caco-2 permeability and PPB were performed by Cyprotex Ltd. (www.cyprotex.com, accessed on 22 October 2021) using their standard assays and as described on their website.

The target in data set [3] is T1, FLT3 (Homo sapiens, UniProt P36888).
T1 sequence (P36888 27-993): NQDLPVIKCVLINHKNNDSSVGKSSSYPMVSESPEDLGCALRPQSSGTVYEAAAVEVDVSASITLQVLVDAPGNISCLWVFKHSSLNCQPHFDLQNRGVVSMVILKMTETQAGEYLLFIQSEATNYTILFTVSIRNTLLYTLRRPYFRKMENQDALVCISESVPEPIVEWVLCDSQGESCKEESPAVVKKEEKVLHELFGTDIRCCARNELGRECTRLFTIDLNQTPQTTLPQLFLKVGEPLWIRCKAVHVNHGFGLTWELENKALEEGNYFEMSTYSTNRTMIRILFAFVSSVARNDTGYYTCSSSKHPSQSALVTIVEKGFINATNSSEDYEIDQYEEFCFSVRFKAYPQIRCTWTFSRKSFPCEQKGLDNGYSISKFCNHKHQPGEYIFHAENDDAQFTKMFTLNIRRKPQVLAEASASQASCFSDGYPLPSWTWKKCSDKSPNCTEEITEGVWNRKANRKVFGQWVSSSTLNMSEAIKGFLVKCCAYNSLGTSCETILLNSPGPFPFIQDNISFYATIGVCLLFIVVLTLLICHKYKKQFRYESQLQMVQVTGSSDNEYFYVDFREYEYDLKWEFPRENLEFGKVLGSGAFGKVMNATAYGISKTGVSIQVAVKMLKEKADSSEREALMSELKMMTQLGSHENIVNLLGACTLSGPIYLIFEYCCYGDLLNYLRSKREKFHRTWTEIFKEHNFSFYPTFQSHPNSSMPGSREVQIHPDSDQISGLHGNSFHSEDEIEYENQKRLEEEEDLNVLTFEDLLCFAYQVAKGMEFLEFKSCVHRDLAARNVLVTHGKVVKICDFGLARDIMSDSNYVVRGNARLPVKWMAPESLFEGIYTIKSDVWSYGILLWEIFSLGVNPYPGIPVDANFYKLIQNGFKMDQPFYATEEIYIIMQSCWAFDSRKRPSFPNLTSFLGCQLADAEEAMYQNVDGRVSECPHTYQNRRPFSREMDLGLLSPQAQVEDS
In words: Test against FLT3. The class given is biochemical. Conditions: testing concentrations from 1 to 10 μM.

For data set [4], the system named is panel of kinases. In words: Test against a panel of kinases. It is filed as biochemical. The note with it: testing concentrations from 1 to 10 μM.
Data set [5] in a line: Semi-thermodynamic aqueous solubility. The class given is physicochemical. Conditions: aqueous (buffer or water not specified), thermodynamic from solid. The protocol:
as §1

A short description of data set [6]: Caco-2 permeability. The class given is in vitro ADME. Conditions: human. The protocol:
as §1
(In general: Passage across Caco-2 layers is used to estimate intestinal permeability.)

Data set [7] relates to HL-60 cells. Briefly: CD11b expression assay by flow cytometry in HL-60 cells. It is filed as cell-based, human. The protocol:
Cells were treated with 1000 structurally diverse small molecules selected from a commercial library. A single point testing concentration of 10 µM was used. After 4 days, cells were stained with a CD11b antibody and analysed using flow cytometry. Compounds upregulating CD11b expression greater than 10% in at least three of the cell lines were considered as potential hits. Hit confirmation was undertaken as follows: first, the hit was re-tested at 10 µM both with the CD11b antibody and an isotype control to account for nonspecific binding. Secondly, the effect of the hit on cell proliferation and viability was evaluated through staining with DAPI to evaluate the number of dead cells, and with acridine orange to detect total cell numbers. Thirdly, the induction of differentiation caused by the compounds was confirmed through morphology assessment with Giemsa staining. Finally, the molecule was resynthesised and fully characterised to confirm structural authenticity. This fresh sample was then retested in the CD11b assay to generate a concentration-response curve. The study of proliferation and morphology was performed on a panel of six cell lines: HL-60, THP-1, OCI-AML3, KG-1, Kasumi-1 and ME-1.
Thus, structure-activity relationship studies were initiated, where the potency of the new analogues was evaluated through concentration-response testing using the CD11b assay in HL-60 cells. Lipophilic efficiency (LipE), which also accounts for lipophilicity, was also used to compare the quality of the analogues. Even though multiple parameters can influence activity in a cell-based assay, LipE is a useful guide to compare analogues.
PE mouse-anti-human-CD11b/Mac-1 (ICRF44, Cat 555388) and PE-mouse-IgG1-κ-isotype control (MOPC-21, Cat 555749) were purchased from BD Bioscience. Cells were suspended in 100 μL growth media (RPMI + 10% FBS + 1% L-glutamine) at a density of 2 × 10^4 cells/well of a V-bottom 96 well plate (Corning, Cat 3894) and grown for 96 h in the presence of compound at the required concentration. After 96 h, the plate was centrifuged, media was removed, and cells were resuspended in 50 µL of blocking buffer (IMDM, no phenol red + 10% FBS) containing 2.5 μL of either CD11b or isotype control antibody and incubated on ice in the dark for 20 min. Cells were washed twice in 200 μL of staining buffer (IMDM, no phenol red + 1% FBS) before being resuspended in 200 μL of staining buffer containing 1 μg/mL of DAPI to help identify dead cells. Flow cytometry data were collected on an Attune NxT and analysed using the Attune NxT software (Life Technologies).
(In flow cytometry, cells or beads pass a laser one at a time.)

Data set [8] addresses DHODH (Homo sapiens, UniProt Q02127). In words: Test against DHODH. It is filed as biochemical. Conditions: testing concentrations from 1 to 10 μM.
Data set [9] in a line: Metabolic stability in mouse S9 fraction. It is filed as in vitro ADME. Conditions: ER = Clint/species flow rate (mice: 90 mL/min/kg). The protocol: as §1
[22] Extraction ratio (ER) is calculated as the measured intrinsic clearance over the hepatic blood flow of each species (90 mL/min/kg for mice). It has the advantage over other parameters (half-life, clearance) that it is independent of the species used

In data set [10] the target is T2, porcine neuronal tubulin (Sus scrofa, UniProt P02550+P02554).
T2 construct: performed using porcine neuronal tubulin (Cytoskeleton, Inc, Denver, CO, USA, BK006P); purchased Cytoskeleton, Inc BK006P; host or cells: porcine brain (neuronal) tissue
T2 sequence (P02550 whole entry): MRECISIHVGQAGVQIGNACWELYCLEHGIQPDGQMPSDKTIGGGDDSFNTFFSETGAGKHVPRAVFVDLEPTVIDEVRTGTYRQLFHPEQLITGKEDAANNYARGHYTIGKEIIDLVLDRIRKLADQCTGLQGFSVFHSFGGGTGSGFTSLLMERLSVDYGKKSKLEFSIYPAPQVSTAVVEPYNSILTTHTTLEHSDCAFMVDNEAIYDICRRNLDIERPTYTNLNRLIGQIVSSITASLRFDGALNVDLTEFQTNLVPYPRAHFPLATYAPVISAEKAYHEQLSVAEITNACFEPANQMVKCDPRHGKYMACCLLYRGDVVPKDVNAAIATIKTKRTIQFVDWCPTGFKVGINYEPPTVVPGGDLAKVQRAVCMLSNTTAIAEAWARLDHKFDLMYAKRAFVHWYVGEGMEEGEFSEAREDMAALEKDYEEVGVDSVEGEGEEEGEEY
T2 sequence (P02554 whole entry): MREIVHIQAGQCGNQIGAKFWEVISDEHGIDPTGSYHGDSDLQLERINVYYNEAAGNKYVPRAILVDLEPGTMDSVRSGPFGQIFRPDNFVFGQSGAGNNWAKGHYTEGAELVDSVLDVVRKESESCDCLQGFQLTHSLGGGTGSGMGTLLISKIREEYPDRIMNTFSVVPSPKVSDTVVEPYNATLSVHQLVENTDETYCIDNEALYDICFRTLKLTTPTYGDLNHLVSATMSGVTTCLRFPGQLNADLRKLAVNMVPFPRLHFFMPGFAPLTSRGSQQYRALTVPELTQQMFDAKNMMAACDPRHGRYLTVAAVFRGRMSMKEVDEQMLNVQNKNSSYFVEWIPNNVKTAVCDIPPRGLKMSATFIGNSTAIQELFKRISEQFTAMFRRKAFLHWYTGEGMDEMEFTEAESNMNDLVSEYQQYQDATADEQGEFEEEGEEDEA
Briefly: Microtubule (tubulin) polymerisation cell-free assay. Conditions: read-out: IC50, inhibition of tubulin polymerisation. The class given is biochemical. How it is done: The microtubule polymerisation assay was performed using porcine neuronal tubulin (Cytoskeleton, Inc, Denver, CO, USA, BK006P) as an adaptation of the original method of Shelanski et al. and Lee et al. at Cytoskeleton, Inc.

The mark [11] stands for this setting: mouse, whole blood, single dose 3 mg/kg po, blood.

pIC50: −log10 of the molar value. Some results are limits rather than exact numbers.

Chain of DHODH (Q02127 whole entry, species assumed): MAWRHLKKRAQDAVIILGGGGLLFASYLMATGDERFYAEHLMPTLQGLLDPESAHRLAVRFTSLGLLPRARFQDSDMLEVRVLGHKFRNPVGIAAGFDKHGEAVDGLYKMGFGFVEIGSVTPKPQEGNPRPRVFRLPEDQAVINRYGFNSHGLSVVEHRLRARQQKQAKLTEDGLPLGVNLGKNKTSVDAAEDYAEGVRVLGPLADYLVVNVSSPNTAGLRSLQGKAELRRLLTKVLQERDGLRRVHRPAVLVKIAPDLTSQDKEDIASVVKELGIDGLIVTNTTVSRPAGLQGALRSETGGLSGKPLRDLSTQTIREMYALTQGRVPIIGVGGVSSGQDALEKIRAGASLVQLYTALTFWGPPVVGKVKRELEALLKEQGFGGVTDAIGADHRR

With `CC(C)N1C(=O)COCc2ccc(-c3cccc(NS(C)(=O)=O)c3)cc21` [OXS007002, N-(3-(1-Isopropyl-2-oxo-1,2,3,5-tetrahydrobenzo[e][1,4]oxazepin-8-yl)phenyl)methanesulfonamide], the bioavailability (in general, dose-corrected exposure relative to a reference, in per cent) in [1] (mouse, whole blood, 3 mg/kg po vs 0.33 mg/kg iv) worked out at 28%. Besides, the half-life (in general, the time in which the quantity being followed falls by half) in [1] (mouse, whole blood, single dose 3 mg/kg po and 0.33 mg/kg iv, blood, route of parameter not given) was 4.9 h. Further, in [1] (setting [11]), the Cmax (as a rule, the maximum level reached in the sampled fluid or tissue) turned out to be 104 ng/mL and the Tmax (as a rule, the time at which the peak concentration occurs) is 0.42 h. Also, in [1] (mouse, whole blood, single dose 3 mg/kg po, blood, read-out: Vz/F), the Vd/F came to 101 L/kg. In data set [1] (single dose 0.33 mg/kg iv, blood), the Clobs is 73 mL/min/kg. In data set [1] (single dose 3 mg/kg po, blood), this molecule had a Clobs/F of 258 mL/min/kg. Moreover, the fraction unbound in data set [2] came out at 0.11. Besides, the “Activity against FLT3” value in [3] was “inactive”. Besides, the “Activity against a panel of kinases” value in [4] is “inactive”. In [5], the thermodynamic solubility (in general, the concentration in solution at equilibrium with solid) is over 200 µM. The efflux ratio in data set [6] (Caco-2, read-out: EfR, efflux ratio (Caco-2)) came out at 1.3. Besides, in data set [6] (Caco-2 cell permeability), the apparent permeability (Papp) (commonly the rate of passage across a membrane or cell layer, normalised by area and donor concentration) was 31 ×10⁻⁶ cm/s. Moreover, the concentration giving a half-maximal response (EC50) (as a rule, the concentration at which the effect is half-maximal) in [7] (Homo sapiens, HL-60, 96 h, HL-60 cells, 4-day (96 h) treatment, CD11b upregulation, read-out: EC50 [nM], %CD11b response in HL60 cells) was determined as 620 nM. The “LipE (lipophilic efficiency)” value in data set [7] (LipE = -LogEC50-cLogP, EC50 of CD11b assay in HL-60) worked out at 4.5. Further, the “Activity against DHODH” value in data set [8] was “inactive”. The “ER in mS9 (extraction ratio)” value in [9] came to 0.33. In addition, the pIC50 – broadly, the IC50 on a negative log10 scale, so that one unit is a factor of ten – in [10] is 5.44.

Values taken from article PMC8588310, “Identification and Preliminary Structure-Activity Relationship Studies of 1,5-Dihydrobenzo[e][1,4]oxazepin-2(3H)-ones That Induce Differentiation of Acute Myeloid Leukemia Cells In Vitro” (Molecules, 2021).
